Tests used:
fibroblasts = assay: Fibroblast contractility (collagen lattices) and pro-invasive activity (organotypic invasion) induced by human tumour cell conditioned media; type: cell-based; parameters: key to Fibroblasts contractile & pro-invasive phenotype: +: induction; −: no induction
Protocol: In this assay, hDF or CAFs were cultured during one week in serum-free medium (with either vehicle or cytokines) or CM before embedding in matrix gel. 5×10^5 fibroblasts were embedded in a 1 ml mixture of collagen I and Matrigel18. After the gel was set at 37° C. for 1 h, 5×10^5 SCC12 were plated on top of the gel in complete media. The next day, the gel was lifted onto individual collagen coated nylon discs resting on metal bridges and fed from underneath with daily changes of complete media (with either vehicle or inhibitors), allowing the epithelial layer to grow at an air-liquid interface.
After 5 days, cultures were fixed (4% paraformaldehyde+0.25% glutaraldehyde in PBS) and processed for haematoxylin and eosin (H&E) staining by standard methods. Invasion assay was measuring the total area of SCC cells and the area of non-invading SCC cells using imageJ software (http://rsbweb.nih.gov/ij/). The value of invasion index shown is the average 1−(non-invading area/total area) of at least ten fields from three or more independent experiments. Error bars are the standard deviation.
(§1) 2.5×10^4 Fibroblasts were embedded in 100 μl of matrix gel (the Collagen-Matrigel mixture used for organotypic invasion assays) and plated into wells of a 96 well plate^57. After 1 h at 37° C., the matrices were overlaid with 100 μl serum-free medium (with either vehicle, cytokines or inhibitors) or CM. Every 2 days, medium was changed and at day 6 the gels were photographed and the respective diameters of the well and gel were measured using ImageJ. The percentage contraction was calculated using the formula 100*(well diameter−gel diameter)/well diameter.
Neutralizing antibody against LIF (AB-250-NA, R&D, Minneapolis, Minn.), IL-6 R (AB-227-NA, R&D) or TGF beta-1,2,3 (MAB1835, R&D) were used at 10 μg/ml otherwise stated. Neutralizing antibody were incubated one hour with conditioned media before being used for matrix remodelling assay and fibroblasts stimulation to neutralize the biological activity of selected cytokines.
Cancer Cells were grown to confluence, washed twice with PBS and then incubated in serum-free medium at 37° C. After 48 hours, conditioned medium was collected, centrifugated at 5000 g for 5 minutes to remove cell debris and the supernatant stored at −80° C. For immunobloting analysis, fibroblasts were stimulated with cancer cells conditioned media for 5 min, otherwise stated, and lysed as described in the immunbloting section. To analyse LIF secretion upon TGFβ-1 stimulation, fibroblasts were stimulated with 2 ng/ml TGF beta-1 for 1, 4, 24 or 48 h in serum-free medium and conditioned media was prepared as below for ELISA analysis.

mouse dermal fibroblasts = assay: TGFβ1-stimulated mouse dermal fibroblasts: STAT3 phosphorylation and collagen gel contraction; type: cell-based
Protocol: as §1
For immunoblotting analysis, cells were lysed on ice in lysis buffer (25 mM Tris (pH 6.8), 2% Sodium dodecyl sulfate (SDS), 5% glycerol, 1% beta-mercaptoethanol, 0.01% bromophenol blue). Equal amounts of protein from each sample were loaded on sodium dodecyl sulfate-polyacrylamide gel electrophoresis, separated, and transferred onto nitrocellulose. The immunoblots were blocked by incubation in 5% bovine serum albumin, 10 mM Tris-HCl (ph7.5), 500 mM NaCl, 0.1% Tween 20 for 30 min at room temperature, probed with specific antibodies and then with secondary antibodies using common classical methods. Immunodetection was performed using chemiluminescent HRP subtrate (#WBKLS0500, Millipore, Billerica, Mass.).

410.4 cells = assay: Orthotopic tumours in BALB/c mice; type: in vivo, mouse; conditions: 21-day oral gavage, 30 mg/kg/day
Protocol: After embedding in paraffin, tissue sections from organotypic culture, skin from human breast and foreskin, and human skin carcinomas were prepared on slides using standard methods. Collagen assembly was evaluated by Sirius Red staining. Briefly, sections were first incubated with Weigert's iron hematoxylin (#C0231, Diapath, Martinengo, Italy) for 8 minutes and washed in distilled water for 10 minutes. Sections were next incubated with 1% Sirius Red in saturated picric acid for 1 hour. The slides were then washed twice with 0.5% acetic acid in distilled H2O, dehydrated and mounted using classical procedures. Sections were analysed using polarized light imaging and confocal laser microscopy with a LSM 5 EXCITER confocal microscope (Carl Zeiss, Germany). Collagen fibres thickness and length were quantified using ImageJ software.
6-8 weeks old female BALB/c mice were anesthetized using ketamine and xelazine by peritoneal injection. Skin was incised and 5.10^3 67NR or 410.4 cells (5.10^3) were injected into the right and left 4th mammary fat pad in 10 μl of PBS for each mouse. 67NR group consisted of 2 mice (4 primary tumours), 410.^4 group consisted of 7 mice (14 tumours) and 410.4 with additional treatment of Ruxolitinib (30 mg/kg/day) group consisted of 5 mice (10 tumours). Mice were sacrificed 30 days post-injection and Ruxolitinib treatment started 7 days after injection, primary tumours were removed and fixed in PBS containing 3.7% formalin for 8 hours, followed by was with PBS and transfer to 70% ethanol, and then embedded in paraffin, sectioned and stained with haematoxylin and eosin. Immunohistochemistry detection using anti-LIF, anti-p-STAT3 and anti-alpha-SMA antibodies was performed on paraffin sections following manufactures instructions.

[1] = mice implanted with 401.4 cells

N#CCC(C1CCCC1)n1cc(-c2ncnc3[nH]ccc23)cn1 (stereo not drawn) [Ruxolitinib, 3-Cyclopentyl-3-[4-(7H-pyrrolo[2,3-d]pyrimidin-4-yl)-1H-pyrazol-1-yl]propanenitrile]
Fibroblasts contractile & pro-invasive phenotype (fibroblasts; A375M2 CM (h. melanoma), antibodies 10 μg·ml−1, αLIF (50)): − | Fibroblasts contractile & pro-invasive phenotype (fibroblasts; A375P CM (h. melanoma), antibodies 10 μg·ml−1): − | Fibroblasts contractile & pro-invasive phenotype (fibroblasts; A549 CM (h. lung carcinoma), antibodies 10 μg·ml−1): − | Fibroblasts contractile & pro-invasive phenotype (fibroblasts; CAL27 CM (human OSCC), antibodies 10 μg·ml−1, αLIF (50)): − | Fibroblasts contractile & pro-invasive phenotype (fibroblasts; CAL33 CM (human OSCC), antibodies 10 μg·ml−1): − | Fibroblasts contractile & pro-invasive phenotype (fibroblasts; CAL33_LIF CM (h. engineered cell line), antibodies 10 μg·ml−1, αLIF (50)): − | Fibroblasts contractile & pro-invasive phenotype (fibroblasts; CAL33_mock CM (h. engineered cell line), antibodies 10 μg·ml−1): − | Fibroblasts contractile & pro-invasive phenotype (fibroblasts; CAL60 CM (human OSCC), antibodies 10 μg·ml−1): − | Fibroblasts contractile & pro-invasive phenotype (fibroblasts; CAL166 CM (human OSCC), antibodies 10 μg·ml−1): − | Fibroblasts contractile & pro-invasive phenotype (fibroblasts; Detroit562 CM (human OSCC), antibodies 10 μg·ml−1): − | Fibroblasts contractile & pro-invasive phenotype (fibroblasts; LS174 CM (h. colon carcinoma), antibodies 10 μg·ml−1): − | Fibroblasts contractile & pro-invasive phenotype (fibroblasts; MDA-MB-231 CM (breast carcinoma), antibodies 10 μg·ml−1): − | Fibroblasts contractile & pro-invasive phenotype (fibroblasts; MDA-MB-468 CM (breast carcinoma), antibodies 10 μg·ml−1): − | Fibroblasts contractile & pro-invasive phenotype (fibroblasts; Mel501 CM (h. melanoma), antibodies 10 μg·ml−1): − | Fibroblasts contractile & pro-invasive phenotype (fibroblasts; Mel1205 CM (h. melanoma), antibodies 10 μg·ml−1): − | Fibroblasts contractile & pro-invasive phenotype (fibroblasts; SCC12 CM (human OSCC), antibodies 10 μg·ml−1): − | Fibroblasts contractile & pro-invasive phenotype (fibroblasts; SCC13 CM (human OSCC), antibodies 10 μg·ml−1): − | Fibroblasts contractile & pro-invasive phenotype (fibroblasts; SCC25 CM (human OSCC), antibodies 10 μg·ml−1): − | Fibroblasts contractile & pro-invasive phenotype (fibroblasts; Sbcl2 CM (h. melanoma), antibodies 10 μg·ml−1): − | Fibroblasts contractile & pro-invasive phenotype (fibroblasts; WM35 CM (h. melanoma), antibodies 10 μg·ml−1): − | Fibroblasts contractile & pro-invasive phenotype (fibroblasts; WM278 CM (h. melanoma), antibodies 10 μg·ml−1): − | Fibroblasts contractile & pro-invasive phenotype (fibroblasts; WM793 CM (h. melanoma), antibodies 10 μg·ml−1): − | Fibroblasts contractile & pro-invasive phenotype (fibroblasts; hPK CM, antibodies 10 μg·ml−1): − | STAT3 phosphorylation (mouse dermal fibroblasts): complete abrogation | matrix remodelling (mouse dermal fibroblasts): complete abrogation | STAT3 phosphorylation within the tumour microenvironment in vivo (410.4 cells; [1]): inhibited | αSMA staining (410.4 cells; [1]): without influencing | rates of invasion of the tumour cells (410.4 cells; mice implanted with 401.4 cells, FIG. 4B): significant reduced | Sirius Red staining and formation of collagen bundles (410.4 cells; mice implanted with 401.4 cells, FIG. 4C): reduced | LIF production (410.4 cells; mice implanted with 410.4 cells): without influencing
